# Reference: patent US8426353B2, “Process for preparing polyurea microcapsules” (Firmenich SA, priority 2008, dated 2013)
# Like-named read-outs stand apart in the source and are kept apart here.
# Tests used:
# [1] = GC-MS analysis of perfume leaked out of the capsules during one month storage in concentrated fabric softener; type: physicochemical; settings: for Percentage of perfume having leaked out of the capsules upon one month storage, % In fabric softener at 22° C. / Percentage of perfume having leaked out of the capsules upon one month storage, % In fabric softener at 37° C.: perfume of Example 9 encapsulated per Example 2, capsules at 1.25%; for Percentage of perfume having leaked out of the capsules upon one month storage, % In fabric softener at 22° C.: one month at 22° C.; for Percentage of perfume having leaked out of the capsules upon one month storage, % In fabric softener at 37° C. / Percentage of ingredient having leaked out of the capsules during one month storage, % In fabric softener 37° C.: one month at 37° C.; for Percentage of ingredient having leaked out of the capsules during one month storage, % In fabric softener 37° C.: perfume of Example 6 encapsulated per Example 2, capsules at 1.25%
# Protocol: The concentrated fabric softener base was prepared by admixing the ingredients listed in Table 4, in the amounts indicated.
# [2] = GC-MS analysis of perfume leaked out of the capsules during one month storage in concentrated liquid detergent; type: physicochemical; settings: for Percentage of perfume having leaked out of the capsules upon one month storage, % In Concentrated Liquid Detergent at 22° C. / Percentage of perfume having leaked out of the capsules upon one month storage, % In Concentrated Liquid Detergent at 37° C.: perfume of Example 9 encapsulated per Example 2, capsules at 1.25% in Tide 2x Concentrated HE Free; for Percentage of perfume having leaked out of the capsules upon one month storage, % In Concentrated Liquid Detergent at 22° C. / Percentage of ingredient having leaked out of the capsules during one month storage, % In concentrated Liquid Detergent 22° C.: one month at 22° C.; for Percentage of perfume having leaked out of the capsules upon one month storage, % In Concentrated Liquid Detergent at 37° C. / Percentage of ingredient having leaked out of the capsules during one month storage, % In concentrated Liquid Detergent 37° C.: one month at 37° C.; for Percentage of ingredient having leaked out of the capsules during one month storage, % In concentrated Liquid Detergent 22° C. / Percentage of ingredient having leaked out of the capsules during one month storage, % In concentrated Liquid Detergent 37° C.: perfume of Example 6 encapsulated per Example 2, capsules at 1.25% in Tide 2x Concentrated HE Free
# Source text: The concentrated liquid detergent base was a commercially available Tide® 2× Concentrated HE Free of perfume & dye (trademark of Procter and Gamble, USA).
# The concentrated liquid detergent base was the commercially available Tide® 2× Concentrated HE Free of perfume & dye (trademark of Procter and Gamble, USA).
# [3] = LogP of the perfume ingredients
# [4] = ingredients of the perfume of Example 9 (Table 9)
"Percentage of perfume having leaked out of the capsules upon one month storage, % In fabric softener at 22° C. [1]","Percentage of perfume having leaked out of the capsules upon one month storage, % In fabric softener at 37° C. [1]","Percentage of perfume having leaked out of the capsules upon one month storage, % In Concentrated Liquid Detergent at 22° C. [2]","Percentage of perfume having leaked out of the capsules upon one month storage, % In Concentrated Liquid Detergent at 37° C. [2]","LogP [3, 4]","Percentage of ingredient having leaked out of the capsules during one month storage, % In fabric softener 37° C. [1]","Percentage of ingredient having leaked out of the capsules during one month storage, % In concentrated Liquid Detergent 22° C. [2]","Percentage of ingredient having leaked out of the capsules during one month storage, % In concentrated Liquid Detergent 37° C. [2]",LogP [3],LogP ([3]; ingredients of the perfume of Example 6 (Table 1)),Molecule
3%,17%,3%,37%,4.34,,,,,,Terpenyl acetate
5%,8%,5%,51%,3.34,,,,,,CCC(=O)OC1CC2CC1C1CC=CC21 (stereo not drawn) [Verdyl propionate]
,,,,,1%,2%,20%,5.19,,CC(C)=CCCC1=CCC(C)(C=O)CC1 (stereo not drawn) [1-Methyl-4-(4-methyl-3-pentenyl)-3-cyclohexene-1-carbaldehyde]
,,,,,5%,1%,11%,4.42,,"CC(=O)OC1CCC(C(C)(C)C)CC1 (stereo not drawn) [Lorysia ®, 4-(1,1-dimethylethyl)-1-cyclohexyl acetate]"
,,,,,2%,1%,6%,,5.39,"(1′R,E)-3,3-dimethyl-5-(2′,2′,3′-trimethyl-3′-cyclopenten-1′-yl)-4-penten-2-ol [Polysantol ®]"
4%,12%,4%,21%,,,,,3.86,,CC(=O)O[C@@H]1C[C@H]2CC[C@]1(C)C2(C)C (racemic) [Isobornyl acetate]
46%,98%,46%,100%,,,,,3.67,,C=CCOC(=O)CCCCCC [Allyl heptanoate]
13%,85%,13%,,3.42,,,,,,CC1CCC(C(C)(C)O)CC1 (stereo not drawn) [Dihydroterpineol]
